Laboratory results taken from patent US9402395B2, “Insecticidal compounds” (Syngenta Participations AG, priority 2013, dated 2016).

Legend:
Assay type in all cases: in vivo
Heliothis virescens = Heliothis virescens (Tobacco budworm) egg/larva test on artificial diet; settings: 96 h, application rate of 200 ppm (concentration in well 18 ppm), eggs 0-24 h old on artificial diet, egg mortality, larval mortality, growth regulation after 4 days
Method: Heliothis virescens (Tobacco budworm): Eggs (0-24 h old) were placed in 24-well microtiter plate on artificial diet and treated with test solutions at an application rate of 200 ppm (concentration in well 18 ppm) by pipetting. After an incubation period of 4 days, samples were checked for egg mortality, larval mortality, and growth regulation.

Plutella xylostella = Plutella xylostella (Diamond back moth) larva test on artificial diet; settings: 144 h, application rate of 200 ppm (concentration in well 18 ppm), L2 larvae, larval mortality and growth regulation after 6 days
Method: (§1) Plutella xylostella (Diamond back moth): 24-well microtiter plate (MTP) with artificial diet was treated with test solutions at an application rate of 200 ppm (concentration in well 18 ppm) by pipetting. After drying, the MTP's were infested with L2 larvae (7-12 per well). After an incubation period of 6 days, samples were checked for larval mortality and growth regulation.

Thrips tabaci = Thrips tabaci (Onion thrips) sunflower leaf disc spray test; settings: foliar, 168 h, application rate of 200 ppm, sunflower leaf discs, population of mixed ages, mortality after 7 days
Method: Thrips tabaci (Onion thrips): Sunflower leaf discs were placed on agar in a 24-well microtiter plate and sprayed with test solutions at an application rate of 200 ppm. […] After an incubation period of 7 days, samples were checked for mortality.

Myzus persicae = Myzus persicae (Green peach aphid) sunflower leaf disc spray test; settings: foliar, 144 h, application rate of 200 ppm, sunflower leaf discs, aphid population of mixed ages, mortality after 6 DAT
Method: Myzus persicae (Green peach aphid): Sunflower leaf discs were placed on agar in a 24-well microtiter plate and sprayed with test solutions at an application rate of 200 ppm. After drying, the leaf discs were infested with an aphid population of mixed ages. After an incubation period of 6 DAT, samples were checked for mortality.

Spodoptera littoralis = Spodoptera littoralis (Egyptian cotton leafworm) cotton leaf disc spray test; settings: foliar, 72 h, application rate of 200 ppm, cotton leaf discs, L1 larvae, mortality, feeding behavior, growth regulation 3 days after treatment
Description: Spodoptera littoralis (Egyptian cotton leafworm): Cotton leaf discs were placed on agar in a 24-well microtiter plate and sprayed with test solutions at an application rate of 200 ppm. After drying, the leaf discs were infested with 5 L1 larvae. The samples were checked for mortality, feeding behavior, and growth regulation 3 days after treatment (DAT).

Diabrotica balteata = Diabrotica balteata (Corn root worm) larva test on artificial diet; settings: 120 h, application rate of 200 ppm (concentration in well 18 ppm), L2 larvae, larval mortality and growth regulation after 5 days
Method: as §1, with “Diabrotica balteata (Corn root worm): A” for “Plutella xylostella (Diamond back moth):”, “(6-10” for “(7-12”, “5” for “6”

Tetranychus urticae = Tetranychus urticae (Two-spotted spider mite) bean leaf disc spray test; settings: foliar, 192 h, application rate of 200 ppm, bean leaf discs, mite populations of mixed ages, egg, larval and adult mortality 8 days later
Description: Tetranychus urticae (Two-spotted spider mite): Bean leaf discs on agar in 24-well microtiter plates were sprayed with test solutions at an application rate of 200 ppm. After drying, the leaf discs are infested with mite populations of mixed ages. 8 days later, discs are checked for egg mortality, larval mortality, and adult mortality.

Measured: pest or weed control at 200 ppm

CCCN(C(=O)c1ccc[n+]([O-])c1)c1cccc(C(=O)Nc2c(Cl)cc(C(F)(C(F)(F)F)C(F)(F)F)cc2Cl)c1 [Compound 9]
≥ 80%: Heliothis virescens | Plutella xylostella | Thrips tabaci | Myzus persicae

CCN(C(=O)c1cccnc1)c1cccc(C(=O)Nc2c(Br)cc(C(F)(C(F)(F)F)C(F)(F)F)cc2Br)c1F [Compound 11]
≥ 80%: all assays above

CCCN(C(=O)c1ccc[n+]([O-])c1)c1cccc(C(=O)N(C)c2c(Cl)cc(C(F)(C(F)(F)F)C(F)(F)F)cc2Br)c1F [Compound 1, N′-[3-[[2-bromo-6-chloro-4-[1,1,1,2,3,3,3-heptafluoro-prop-2-yl]phenyl]-N′-methyl-carbamoyl]-2-fluoro-phenyl]-N-propyl-1-oxido-pyridin-1-ium-3-carboxamide]
not listed: Heliothis virescens | Diabrotica balteata
≥ 80%: all other assays above

CCN(C(=O)c1ccc[n+]([O-])c1)c1cccc(C(=O)Nc2c(Cl)cc(C(F)(C(F)(F)F)C(F)(F)F)cc2Br)c1F [Compound 7]
not listed: Thrips tabaci
≥ 80%: all other assays above

CN(C(=O)c1cccnc1)c1cccc(C(=O)Nc2c(Br)cc(C(F)(C(F)(F)F)C(F)(F)F)cc2Br)c1F [Compound 12]
≥ 80%: all assays above

CCN(C(=O)c1cccnc1)c1cccc(C(=O)Nc2c(Cl)cc(C(F)(C(F)(F)F)C(F)(F)F)cc2Br)c1F [Compound 6]
≥ 80%: all assays above

CN(C(=O)c1cccnc1)c1cccc(C(=O)Nc2c(Cl)cc(C(F)(C(F)(F)F)C(F)(F)F)cc2Br)c1F [Compound 4]
not listed: Spodoptera littoralis
≥ 80%: all other assays above

CCN(C(=O)c1cccnc1)c1cccc(C(=O)Nc2c(Cl)cc(C(F)(C(F)(F)F)C(F)(F)F)cc2Cl)c1F [Compound 16]
≥ 80%: all assays above

CN(C(=O)c1ccc[n+]([O-])c1)c1cccc(C(=O)Nc2c(Cl)cc(C(F)(C(F)(F)F)C(F)(F)F)cc2Br)c1F [Compound 5]
not listed: Thrips tabaci
≥ 80%: all other assays above

CCN(C(=O)c1ccc[n+]([O-])c1)c1cccc(C(=O)Nc2c(Br)cc(C(F)(C(F)(F)F)C(F)(F)F)cc2Br)c1F [Compound 13]
≥ 80%: all assays above

CN(C(=O)c1cccnc1)c1cccc(C(=O)N(C)c2c(Br)cc(C(F)(C(F)(F)F)C(F)(F)F)cc2Br)c1 [Compound 15]
not listed: Diabrotica balteata | Tetranychus urticae
≥ 80%: all other assays above

CCCN(C(=O)c1cccnc1)c1cccc(C(=O)Nc2c(Cl)cc(C(F)(C(F)(F)F)C(F)(F)F)cc2Cl)c1 [Compound 8]
not listed: Tetranychus urticae
≥ 80%: all other assays above

Cc1cc(C(F)(C(F)(F)F)C(F)(F)F)cc(Br)c1N(C)C(=O)c1cccc(N(C)C(=O)c2cccnc2)c1F [Compound 3]
not listed: Tetranychus urticae
≥ 80%: all other assays above

CCc1cc(C(F)(C(F)(F)F)C(F)(F)F)cc(Br)c1N(C)C(=O)c1cccc(N(C)C(=O)c2cccnc2)c1F [Compound 2]
≥ 80%: all assays above

Cc1cc(C(F)(C(F)(F)F)C(F)(F)F)cc(Cl)c1NC(=O)c1cccc(N(C)C(=O)c2cccnc2)c1F [Compound 17]
≥ 80%: all assays above

CCN(C(=O)c1cccnc1)c1cccc(C(=O)Nc2c(C)cc(C(F)(C(F)(F)F)C(F)(F)F)cc2Cl)c1F [Compound 18]
≥ 80%: all assays above
